# What was measured:
# [1] = test system: progressing desmoid tumors; conditions: Phase 2, participants with progressing desmoid tumors; cited from earlier work
# [2] = test system: progressing desmoid tumors/aggressive fibromatosis (DT/AF); assay type: in vivo
# Excerpt: A Phase 3, double-blind, placebo-controlled study is being conducted to determine the efficacy and safety of nirogacestat dihydrobromide in participants with progressing desmoid tumors. A Phase 1 solid tumor study provided preliminary efficacy (Messersmith, W., et al., “A Phase I, dose-finding study in patients with advanced solid malignancies of the oral y-secretase inhibitor PF-03084014,” Clin. Cancer Res., 21:60-7 (2015)), including long-term durable responses and safety of nirogacestat in desmoid participants (Villalobos, V. M., et al., “Long-Term Follow-Up of Desmoid Fibromatosis Treated with PF-03084014, an Oral Gamma Secretase Inhibitor, Ann. Surg. Oncol., 25:768-75 (2018)). These encouraging results lead to a Phase 2 study in participants with progressing desmoid tumors (Kummar, S., et al., “Clinical Activity of the γ-Secretase Inhibitor PF-03084014 in Adults with Desmoid Tumors (Aggressive Fibromatosis), J. Clin. Oncol., 35:1561-69 (2017)). […] Importantly, participants in the responder group had failed previous systemic therapies (imatinib or sorafenib) indicating a need for alterative therapeutic options for this patient population.
# Overall Design: The Phase 3 study will be a multi-center, randomized, double-blind, placebo-controlled, event-driven to compare the efficacy, safety, and tolerability of nirogacestat and placebo in adult participants with progressing DT/AF. This study will consist of 2 phases, a double-blind and an optional open-label extension (OLE) phase.
# Following disease progression (confirmed by central review using RECIST v1.1), or completion of the double-blind phase (once the required number of events have been observed and the primary PFS analysis has been completed), participants' treatment assignment will be unblinded, and if eligible, participants will have the option to enroll in the optional OLE phase.
# Type of Participant and Disease Characteristics: • 1. Participant has DT/AF that has progressed by ≥20% as measured by RECIST v1.1 within the 12-month period prior to first dose of study treatment. • 2. Participant has: • a. Newly diagnosed, measurable progressing DT/AF that is not amenable to surgical resection or radiation therapy; • OR • b. Recurrent, progressing DT/AF following CR to initial therapy; • OR • c. Preexisting DT/AF and has previously received therapy and the residual tumor has progressed. • 3. Participant agrees to provide archival or new tumor tissue for confirmation of disease. • 4. If participant was previously treated with an investigational therapy for treatment of DT/AF, participant must have completed prior therapy at least 28 days prior to signing informed consent. All toxicities from prior therapy must resolve to Grade 1 or baseline. • 5. Participants who are receiving nonsteroidal anti-inflammatory drugs (NSAIDs) as treatment for conditions other than DT/AF must be receiving them prior to the observed progression (inclusion criteria 1) for: • a. Chronic scheduled daily use (defined as stable for 28 days prior to signing informed consent); or • b. Occasional use (defined as ≤3 days per week) for the treatment of pain or as an anti-inflammatory in licensed conditions such as headache, arthritis, etc. • c. Participant has an Eastern Cooperative Oncology Group (ECOG) performance status ≤2 at screening. • 6. Participant has adequate organ and bone marrow function as defined by the following Screening laboratory values: • a. Absolute neutrophil count ≥1500/μL; • b. Platelets ≥100×10^3/μL; • c. Hemoglobin ≥9 g/dL; • d. Total bilirubin ≤1.5×upper limit of normal (ULN) (isolated bilirubin >1.5×ULN is acceptable if bilirubin is fractionated and direct bilirubin <35%); • e. Aspartate aminotransferase (AST) (serum glutamic oxaloacetic transaminase)/alanine aminotransferase (ALT) (serum glutamic pyruvate transaminase)≤2×ULN; and • f. […] Participant can swallow tablets and has no gastrointestinal conditions affecting absorption. […]
# [3] = 150 mg twice daily, positive change indicates improvement
# [4] = change from Baseline in EORTC, P: <0.001
smiles,measurement,setting,value
"CCC[C@H](N[C@H]1CCc2cc(F)cc(F)c2C1)C(=O)Nc1cn(C(C)(C)CNCC(C)(C)C)cn1 (single isomer, unassigned) [nirogacestat]",participants progressing while on therapy,[1],no participants progressing while on therapy
same,response rate,[1],29%
same,tumor shrinkage as measured by magnetic resonance imaging (MRI),[1],significant tumor shrinkage
same,"mean change from Baseline in EORTC, Global health status/Quality of life (GHS/QoL)",[2]; [3],4.493
same,"mean change from Baseline in EORTC, QLQ30 Role Functioning",[2]; [3],11.133
same,"mean change from Baseline in EORTC, QLQC30 Physical Functioning",[2]; [3],8.523
same,"LS mean difference (between nirogacestat and placebo), Global health status/Quality of life (GHS/QoL)","[2]; change from Baseline in EORTC, P: 0.007",10.515
same,"LS mean difference (between nirogacestat and placebo), QLQ30 Role Functioning",[2]; [4],16.714
same,"LS mean difference (between nirogacestat and placebo), QLQC30 Physical Functioning",[2]; [4],13.154
same,most frequent adverse reactions requiring a dose reduction or interruption,[2]; in vivo,"diarrhea, rash maculo-papular, hypophosphatemia, stomatitis, folliculitis, and fatigue"
same,"progression-free survival (PFS), hazard ratio (HR)","[2]; nirogacestat 150 mg twice daily over placebo, <0.001",0.29
same,objective response rate (ORR),"[2]; nirogacestat 150 mg twice daily versus placebo, p<0.001",statistically significant improvements
same,four different quality of life (QoL) assessments and patient-reported outcomes (PROs),"[2]; nirogacestat 150 mg twice daily versus placebo, p<0.001 for each",statistically significant improvements

# From patent US20230372301A1, “TREATMENTS WITH NIROGACESTAT” (SpringWorks Therapeutics, Inc., priority 2022, published 2023)
